From PubChem BioAssay AID179 (DTP/NCI, 2004)
pEC50, pIC50: −log10 of the molar value. Activity calls are given as the source filed them.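 How the source made its calls: active means compounds giving half or more protection of infected cells from virus-caused growth loss, again on retest; inactive means the rest.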 *1 amine or outer side, *2 acyl side, *3 side chain or, on linkers, in order; H or OH if unused. Where a SMILES comes first, the peptide text is derived from it. [ ]: non-standard residue; d: D form. The star is where a group is joined. X3 = CC(=O)N(C)SCC(N[*:1])C(=O)[*:2]; X20 = CC(=O)N(C)SCC(N*)/C(O)=N\O; Cbz = O=C(OCc1ccccc1)*; Bn = c1ccc(C*)cc1; For = O=C*

Test system: CEM cells HIV-1 protection, formazan growth assay
Experiment: NCI AIDS Antiviral Assay
Conditions: for pIC50: measured here: growth of uninfected CEM cells
How it was run: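 Protection of CEM cells against HIV-1 was scored from cell growth (soluble formazan) across five concentrations, with parallel uninfected cells. Lack of protection may reflect toxicity.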

## Nc1c(N=Nc2ccc(-c3ccc(N=Nc4c(S(=O)(=O)O)cc5cc(S(=O)(=O)O)c(N=Nc6ccccc6)c(O)c5c4N)cc3)cc2)ccc2c(S(=O)(=O)O)cccc12
  outcome: inactive

## C=C1CC(Cn2ccc(=O)[nH]c2=O)(c2ccc(Cl)cc2)OC1=O (stereo not drawn)
  pEC50: < 4.70
  pIC50: 6.04

## CCCCCCCCCCCCCCCCP(=O)([O-])OCC[N+](C)(C)C
  pEC50: < 3.70
  pIC50: 4.92

## CCCc1c2c([nH]c(=O)c1C)C(=O)c1[nH]c(=O)c(C)c(CCC)c1C2=O
  outcome: inactive

## CSc1nnc(COc2ccc(Cl)cc2)o1
  pEC50: < 3.58
  pIC50: < 3.58

## c1ccc(COCC23CCN(Cc4ccccc4)C(CC(OCc4ccccc4)C2)S3)cc1 (stereo not drawn)
  pEC50: < 3.70
  pIC50: 4.34

## O=C(OC1C(OC(=O)c2cccnc2)C(OC(=O)c2cccnc2)C(OC(=O)c2cccnc2)C(OC(=O)c2cccnc2)C1OC(=O)c1cccnc1)c1cccnc1 (stereo not drawn)
  pEC50: < 3.70
  pIC50: < 3.70

## Cc1c(O)cc2c(c1O)C(=O)CC(c1ccc(O)cc1)O2 (stereo not drawn)
  pEC50: < 3.70
  pIC50: 4.03

## N#CC(C#N)=Cc1cccc(F)c1
  pEC50: < 3.68
  pIC50: 4.37

## CC[N+]1(C)CCC(O)(c2ccc(Cl)c(Cl)c2)C(C(=O)c2ccc(Cl)c(Cl)c2)C1 (stereo not drawn)
  pEC50: < 3.70
  pIC50: 4.65

## Cc1cc(C(=C2C=CC(=Nc3ccc(S(=O)(=O)O)cc3)C=C2)c2ccc(Nc3ccc(S(=O)(=O)O)cc3)cc2)cc(S(=O)(=O)O)c1N
  pEC50: 4.52
  pIC50: 4.31

## COC(=O)C(=O)C(C#N)c1cccc2ccccc12 (stereo not drawn)
  outcome: inactive

## CC1C2(C)OC(=N)C(C#N)(C(c3ccccc3)O2)C1(C#N)C#N (stereo not drawn)
  pEC50: < 3.70
  pIC50: 4.97

## c1ccc(N=C(N2CCCCC2)N(CCN2CCCCC2)c2ccccc2)cc1
  pEC50: < 3.70
  pIC50: 5.74

## CC1CCCC(C)C(Sc2ccccc2)=C1Sc1ccccc1 (stereo not drawn)
  outcome: inactive

## C=CCSc1nn(CC=C)cc2ncnc1-2
  pEC50: < 3.70
  pIC50: < 3.70

## CCn1c(=O)c(N=O)c(N)n(C2CC2)c1=O
  pEC50: < 3.70
  pIC50: < 3.70

## CCN(CC)CCSc1c2ccccc2nc2c(OC)ccc(OC)c12
  outcome: inactive

## CC#CCCN(CC#N)Cc1ccccc1
  pEC50: < 3.70
  pIC50: < 3.70

## CCNC(=O)OCCCCC=C(c1cc(Cl)c(OC)c(C(=O)OC)c1)c1cc(Cl)c(OC)c(C(=O)OC)c1
  pEC50: < 3.70
  pIC50: 4.84

## Oc1ccc2ccc3c(c2c1)CN(Cc1ccccc1)CO3
  pEC50: < 4.61
  pIC50: < 4.61

## CCOC(=O)C1=C(O)c2ccc(OC)cc2C(=O)C1=O
  pEC50: < 3.47
  pIC50: 3.69

## CCCCCCCCCCCCCCCCP(=O)(O)OP(=O)(O)OCC1OC(n2ccc(N)nc2=O)C(O)C1O (stereo not drawn)
  pEC50: < 3.70

## O=C(O)CCCCCCC[C@H]1S[C@H]1CCCCCCO
  outcome: inactive

## CC(NCCCCNC(C)C(=O)O)C(=O)O (stereo not drawn)
  pEC50: < 3.20
  pIC50: < 3.20

## C=C(C)[C@@H]1CC[C@]2(CNC(=O)CC(C)(C)CC(=O)O)CC[C@]3(C)[C@H](CC[C@@H]4[C@@]5(C)CC[C@H](NC(=O)CC(C)(C)CC(=O)O)C(C)(C)[C@@H]5CC[C@]43C)[C@@H]12
  pEC50: < 3.70
  pIC50: 4.74

## Cc1cc(C)nc(NS(=O)(=O)c2ccc(NC(=O)c3ccc(Cl)c4c(Nc5ccc(S(=O)(=O)N=C(N)N)cc5)c5ccccc5nc34)cc2)n1
  pEC50: < 4.45
  pIC50: 4.51

## CC(C)[C@@H]1CC[C@@H](C)C[C@H]1OC(=O)/C=C1/C2C=CC(O2)C1C(=O)O[C@@H]1C[C@H](C)CC[C@H]1C(C)C (stereo partly drawn)
  pEC50: < 3.70
  pIC50: < 3.70

## C(/C=N/NC1=NCCCCN1)=N\NC1=NCCCCN1
  pEC50: < 3.70
  pIC50: < 3.70

## Cc1ccc2c(c1)S(=O)(=O)NC2=O
  pEC50: < 2.90
  pIC50: 2.91

## CCC1C(c2cc(OC)c(OC)c(OC)c2)c2cc3c(cc2OC1N1CCCC1)OCO3 (stereo not drawn)
  pEC50: < 3.70
  pIC50: 5.95

## CC1(C)OC[C@@H]([C@H](C=O)OCc2ccccc2)O1
  pEC50: < 3.70
  pIC50: < 3.70

## CC(=O)N(C)SCC(NC(=O)C(Cc1ccccc1)NC(=O)OCc1ccccc1)C(=O)NC(Cc1ccccc1)C(=O)NC(Cc1cn(C=O)c2ccccc12)C(=O)NC(CCCCNC(=O)OCc1ccccc1)C(=O)NC(C(=O)NC(CSN(C)C(C)=O)/C(O)=N\O)C(C)OCc1ccccc1 (stereo not drawn) (Cbz-F[X3]FW(For)K(Cbz)T(Bn)-X20; configuration not given here)
  outcome: inactive

## CC(=N)OC1CC2CCC1(C)C2(C)C (stereo not drawn)
  pEC50: < 3.70
  pIC50: < 3.70

## CCN(CC)CCCN1CCc2c([nH]c3ccccc23)C1c1cccnc1 (stereo not drawn)
  pEC50: < 3.73
  pIC50: < 3.73

## COc1cc(/C=C/C(=O)c2ccccc2)cc(OC)c1OC
  pEC50: < 4.06
  pIC50: 4.69

## CC(=O)O[C@@]1(C)C[C@@H](O)[C@]2(O)C=CO[C@@H](OC3OC(CO)C(O)C(O)C3O)[C@@H]21 (stereo partly drawn)
  outcome: inactive

## O=C1Oc2cc3c(c4cccc1c24)OCN(c1ccc(Cl)cc1)C3
  pEC50: < 5.09
  pIC50: < 5.09

## CC(=O)Nc1ccc(C(=O)NN2C(=O)C(Cl)C2c2cc(Br)ccc2O)cc1 (stereo not drawn)
  pEC50: < 3.70
  pIC50: 5.38

## COc1ccc(C2OC(=O)c3ccccc32)c2ccccc12 (stereo not drawn)
  pEC50: < 4.33
  pIC50: < 4.33

## CC(C)=CCc1[nH]c2ccccc2c1C1=C(O)C(=O)C(c2c(CC=C(C)C)[nH]c3ccccc23)=C(O)C1=O
  pEC50: < 3.70
  pIC50: 5.76

## Cc1cn(Cc2ccccc2CCO)c(=O)[nH]c1=O
  pEC50: 3.72
  pIC50: 3.32

## COc1c2occc2c(N=Cc2ccccn2)c2ccc(=O)oc12
  pEC50: < 4.40
  pIC50: < 4.40

## CCOC(=O)C(C(=O)OCC)=C1C=C(c2ccccc2)c2ccccc21
  outcome: inactive

## CN(C)c1ccc(/C=N/NC(=S)Nc2ccccc2)cc1
  pEC50: < 3.70
  pIC50: < 3.70

## CCOC(=O)c1ccc(CS(=O)c2ccc([N+](=O)[O-])cc2)c([N+](=O)[O-])c1 (stereo not drawn)
  pEC50: < 4.16
  pIC50: 4.67

## CCCCCCCCCCCCCCCC=C(c1cc(Cl)c(O)c(C(=O)O)c1)c1cc(Cl)c(O)c(C(=O)O)c1
  pEC50: 4.68
  pIC50: 4.46

## CN1C(=O)C(O)CC1c1cccc(C(F)(F)F)c1 (stereo not drawn)
  outcome: inactive

## CC1SC2(CC3CCC2(C)C3(C)C)OC1=O (stereo not drawn)
  pEC50: < 4.68
  pIC50: < 4.68

## COS(=O)(=O)c1c(N)n(C)c(=O)n(C)c1=O
  pEC50: < 3.70
  pIC50: 4.18

## CCOC(=O)C1=C(C#N)S(=O)(=O)c2c(oc(C)c2C)N1
  pEC50: < 3.70
  pIC50: < 3.70

## COc1ccc(NC(=O)C2C(=O)N(c3ccc(OC)cc3)C(=O)/C2=N\N)cc1 (stereo not drawn)
  pEC50: < 5.84
  pIC50: < 5.84

## C=C1C(=O)OC2C3C(=C)[C@@H](OC(C)=O)CC3C(C)=CC(OC(=O)C(C)(O)C(C)OC(C)=O)[C@@H]12 (stereo partly drawn)
  pEC50: < 3.70
  pIC50: < 3.70

## COc1ccc(OC)c(C[P+](c2ccccc2)(c2ccccc2)c2ccccc2)c1
  pEC50: < 3.70
  pIC50: 5.92

## COc1ccc(C(=O)N2CCN(c3ccc4c(c3)OCC(=O)N4)CC2)cc1
  pEC50: < 3.70
  pIC50: < 3.70

## Nc1ccc(C(=O)N/C(=C\c2ccc3c(c2)OCO3)c2nc3ccc4c(c3[nH]2)C(=O)c2ccccc2C4=O)cc1
  outcome: inactive

## COC(=O)C(CNC(=O)/C=C/c1ccc(OC)c(OC)c1)NC(=O)/C=C/c1ccc(OC)c(OC)c1 (stereo not drawn)
  pEC50: < 3.70
  pIC50: 3.87

## OC(c1cc2ccccc2[nH]1)C(O)(c1cc2ccccc2[nH]1)c1cc2ccccc2[nH]1 (stereo not drawn)
  pEC50: < 4.89
  pIC50: 4.96

## Cc1ccc(NC(=O)C(=O)C2C(=O)NC(=O)NC2=O)cc1C
  pEC50: < 3.93
  pIC50: < 3.93

## COC(=O)C1C(=O)N(C)c2cc(C)c(C)cc2C1(C)C (stereo not drawn)
  pEC50: < 3.70
  pIC50: < 3.70

## O=c1[nH]oc(NS(=O)(=O)c2ccccc2)c1C1CCCCC1
  pEC50: < 3.70
  pIC50: 4.01

## COC(=O)Nc1nc2ccc(C(=O)C3CC3)cc2[nH]1
  pEC50: < 3.70
  pIC50: 6.66

## COC(=O)/C(C#N)=C\N1CCNC1=S
  pEC50: < 3.70
  pIC50: < 3.70

## COCn1c(C(=O)c2ccc(OC)cc2)cc2ccccc21
  pEC50: < 4.47
  pIC50: < 4.47

## O=C(O)C1COCN1C(=O)c1ccccc1SSc1ccccc1C(=O)N1COCC1C(=O)O (stereo not drawn)
  pEC50: < 3.70
  pIC50: < 3.70

## COc1ccc(/C=C2\CCC(C)c3c2nc(N)c(C#N)c3-c2ccc(OC)c(OC)c2)cc1OC (stereo not drawn)
  outcome: inactive

## [N-]=[N+]=Nc1ccccc1C(=O)N1C(=O)c2ccccc2C(=O)N(C(=O)c2ccccc2N=[N+]=[N-])c2ccccc21
  pEC50: < 3.70
  pIC50: 4.14

## CC(C)(C)c1cc(COc2c3sc(=S)sc3c(OCc3cc(C(C)(C)C)cc(C(C)(C)C)c3)c3sc(=S)sc23)cc(C(C)(C)C)c1
  outcome: inactive

## IC[P+]1(c2ccccc2)CCCC1
  pEC50: < 3.24
  pIC50: 4.26

## CC(C)(C)c1cc(CCC(=O)Nc2ccc(Cl)cc2)nc(NC#N)n1
  pEC50: < 3.16
  pIC50: < 3.16

## O=c1oc2ccccc2c(O)c1/C=N\c1nc(-c2ccc(O)c(O)c2)cs1
  pEC50: < 3.70
  pIC50: 5.49

## Cc1cc2c(Br)cc(Br)c(O)c2nc1C(=O)c1ccccc1
  pEC50: < 5.32
  pIC50: < 5.32

## Cc1cc2c(c(=O)n1C)COC2=O
  outcome: inactive

## Cc1ccc(NC(=O)CC(=O)n2nc(-c3ccccc3)c(N=Nc3ccccc3[N+](=O)[O-])c2-c2ccccc2)cc1
  pEC50: < 4.60
  pIC50: < 4.60

## CN1CCC2(CC1)SSC1(CCN(C)CC1)S2
  pEC50: < 3.70
  pIC50: 3.72

## Cc1ccc(C(=C2Sc3ccccc3S2)C(=C2Sc3ccccc3S2)c2ccc(C)s2)s1
  pEC50: < 3.70
  pIC50: < 3.70

## N#CCCN(CCC#N)c1ccc(/C=C2\N=C(CN3C(=O)c4ccccc4C3=O)OC2=O)cc1
  pEC50: < 4.10
  pIC50: < 4.10

## COc1ccc([N+](=O)[O-])c2c(NCCCN(C)C)ccnc12
  pEC50: < 3.70
  pIC50: 5.35

## CC(C)CCCC(C)[C@H]1CC[C@H]2[C@@H]3CC[C@H]4C[C@@H](CCC=C(c5cc(Cl)c(OC(=O)c6ccccc6)c(C(=O)O)c5)c5cc(Cl)c(OC(=O)c6ccccc6)c(C(=O)O)c5)CC[C@]4(C)[C@H]3CC[C@]12C (stereo partly drawn)
  pEC50: < 3.70
  pIC50: < 3.70

## N[C@H]1c2c(Br)sc(Br)c2C(=O)[C@H]1O
  pEC50: < 3.70
  pIC50: 5.12

## Cc1cc(N=O)ccc1O
  pEC50: < 3.70
  pIC50: 5.44

## COC(=O)/C(C#N)=C(\N)C(Cl)(Cl)Cl
  outcome: inactive
